Data published in ChEMBL document CHEMBL1201862, “PubChem BioAssay data set” (2004).
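Cells were grown in 96-well plates and exposed to each compound for 48 hours at five concentrations; endpoints were interpolated linearly between bracketing concentrations, or set to the highest concentration if not reached. GI50 marks 50% less growth.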 The source made the active and inactive calls. Rule as the data show it: active = GI50 up to about 1.1 µM and inactive = higher.

Assays:
Assay in all cases: inhibition of tumour cell growth, NCI panel, 48 h
SK-OV-3 = system: SK-OV-3
CCRF-CEM = system: CCRF-CEM
COLO 205 = system: COLO 205
UO-31 = system: UO-31
HT-29 = system: HT-29
HL-60 = system: HL-60
MOLT-4 = system: MOLT-4
IGROV-1 = system: IGROV-1
CAKI-1 = system: CAKI-1
Malme-3M = system: Malme-3M
SK-MEL-28 = system: SK-MEL-28
NCI/ADR-RES = system: NCI/ADR-RES
OVCAR-4 = system: OVCAR-4
OVCAR-5 = system: OVCAR-5
KM12 = system: KM12
SK-MEL-2 = system: SK-MEL-2
SNB-19 = system: SNB-19
OVCAR-3 = system: OVCAR-3
MDA-N = system: MDA-N
HOP-62 = system: HOP-62
PC-3 = system: PC-3
K562 = system: K562
NCI-H23 = system: NCI-H23
HOP-92 = system: HOP-92
NCI-H460 = system: NCI-H460
SNB-75 = system: SNB-75
MDA-MB-231 = system: MDA-MB-231
SF-539 = system: SF-539
T47D = system: T47D
786-0 = system: 786-0
SN12C = system: SN12C
ACHN = system: ACHN
A498 = system: A498
HCT-15 = system: HCT-15
Hs-578T = system: Hs-578T
UACC-257 = system: UACC-257
SF-295 = system: SF-295
NCI-H226 = system: NCI-H226
MDA-MB-435 = system: MDA-MB-435
SF-268 = system: SF-268
U-251 = system: U-251
BT-549 = system: BT-549
NCI-H522 = system: NCI-H522
RXF 393 = system: RXF 393
SW-620 = system: SW-620
MCF7 = system: MCF7
SK-MEL-5 = system: SK-MEL-5
LOX IMVI = system: LOX IMVI
DU-145 = system: DU-145
UACC-62 = system: UACC-62
M14 = system: M14
HCT-116 = system: HCT-116
TK-10 = system: TK-10
OVCAR-8 = system: OVCAR-8
HCC 2998 = system: HCC 2998
EKVX = system: EKVX
A549 = system: A549
SR = system: SR
RPMI-8226 = system: RPMI-8226

Measured: GI50

COC(=O)c1cc(C)ccc1C1CN=NC12Cc1ccc(C)cc1C2=O (stereo not drawn)
40.1 µM: HCT-15
inactive: SK-OV-3 38.1 µM | CCRF-CEM 32.7 µM | COLO 205 15.8 µM | UO-31 27.7 µM | HT-29 41.5 µM | HL-60 13 µM | MOLT-4 23.1 µM | IGROV-1 63.4 µM | CAKI-1 83.4 µM | Malme-3M 25.1 µM | SK-MEL-28 > 100 µM | NCI/ADR-RES 28.5 µM | OVCAR-4 20 µM | OVCAR-5 > 100 µM | KM12 29 µM | SK-MEL-2 57.9 µM | SNB-19 55.2 µM | OVCAR-3 36.3 µM | MDA-N 31.6 µM | HOP-62 > 100 µM | PC-3 32.4 µM | K562 19.4 µM | NCI-H23 34 µM | HOP-92 19.1 µM | NCI-H460 34.1 µM | SNB-75 30.3 µM | MDA-MB-231 63.8 µM | SF-539 60.4 µM | T47D 31.8 µM | 786-0 > 100 µM | SN12C 44.9 µM | ACHN 38.6 µM | A498 29.5 µM | Hs-578T 45.6 µM | UACC-257 34.3 µM | SF-295 38 µM | NCI-H226 24.8 µM | MDA-MB-435 32.2 µM | SF-268 32.7 µM | U-251 44.7 µM | BT-549 30.1 µM | NCI-H522 32.6 µM | RXF 393 59.6 µM | SW-620 53.2 µM | MCF7 29.9 µM | SK-MEL-5 15.5 µM | LOX IMVI 31.2 µM | DU-145 82.8 µM | UACC-62 54.7 µM | M14 38.3 µM | HCT-116 27.1 µM | TK-10 61 µM | OVCAR-8 56.4 µM | HCC 2998 31.4 µM | EKVX 46.5 µM | A549 29.8 µM

O=c1[nH]c(=O)n(C2CC(O)C(CO)O2)cc1/N=N/NCc1ccccc1 (stereo not drawn)
> 100 µM: HCT-15
inactive: SK-OV-3 > 100 µM | CCRF-CEM > 100 µM | COLO 205 > 10 µM | UO-31 > 100 µM | HT-29 > 100 µM | HL-60 > 100 µM | MOLT-4 > 100 µM | IGROV-1 > 100 µM | CAKI-1 > 100 µM | Malme-3M > 100 µM | SK-MEL-28 > 100 µM | NCI/ADR-RES > 100 µM | OVCAR-4 > 100 µM | OVCAR-5 > 100 µM | KM12 > 100 µM | SNB-19 > 100 µM | OVCAR-3 > 100 µM | MDA-N > 100 µM | HOP-62 > 100 µM | PC-3 > 100 µM | K562 > 100 µM | NCI-H23 > 100 µM | NCI-H460 > 100 µM | SNB-75 > 100 µM | MDA-MB-231 > 100 µM | T47D > 100 µM | 786-0 > 100 µM | SN12C > 100 µM | ACHN > 100 µM | Hs-578T > 100 µM | UACC-257 > 100 µM | SF-295 59 µM | NCI-H226 > 100 µM | MDA-MB-435 > 100 µM | SF-268 > 100 µM | U-251 > 100 µM | BT-549 > 100 µM | NCI-H522 > 100 µM | RXF 393 > 100 µM | MCF7 > 100 µM | SK-MEL-5 > 100 µM | LOX IMVI > 100 µM | DU-145 > 100 µM | UACC-62 > 100 µM | M14 > 100 µM | HCT-116 > 100 µM | TK-10 > 100 µM | SR > 100 µM | OVCAR-8 > 100 µM | EKVX > 100 µM | A549 > 100 µM

COC(=O)C1=C(C(=O)OC)SC2(S1)C1=C(CCCC1)SC(C(=O)OC)=C2C(=O)OC
4.39 µM: HCT-15
active: RPMI-8226 0.586 µM
inactive: SK-OV-3 14.9 µM | CCRF-CEM 1.7 µM | COLO 205 9.25 µM | UO-31 4.58 µM | HT-29 2.84 µM | HL-60 2.91 µM | MOLT-4 1.93 µM | IGROV-1 8.32 µM | CAKI-1 4.06 µM | Malme-3M 11.4 µM | SK-MEL-28 9.29 µM | NCI/ADR-RES 17.9 µM | OVCAR-4 12.2 µM | OVCAR-5 12.6 µM | KM12 5.74 µM | SK-MEL-2 15.5 µM | SNB-19 14.5 µM | OVCAR-3 6.89 µM | MDA-N 3.9 µM | HOP-62 5.62 µM | PC-3 5.02 µM | K562 1.62 µM | NCI-H23 15.8 µM | HOP-92 7.82 µM | NCI-H460 3.84 µM | MDA-MB-231 15.8 µM | SF-539 1.51 µM | T47D 2.54 µM | SN12C 2.76 µM | ACHN 6.05 µM | A498 6.21 µM | Hs-578T 15.9 µM | UACC-257 13.1 µM | SF-295 14.6 µM | MDA-MB-435 2.81 µM | SF-268 9.71 µM | U-251 6.67 µM | BT-549 11.7 µM | NCI-H522 1.72 µM | RXF 393 2.33 µM | SW-620 2.09 µM | MCF7 2.61 µM | SK-MEL-5 10.1 µM | LOX IMVI 2.83 µM | DU-145 1.64 µM | UACC-62 12.7 µM | M14 16.9 µM | HCT-116 1.52 µM | TK-10 10.9 µM | OVCAR-8 6.32 µM | HCC 2998 12.3 µM | EKVX 13.3 µM | A549 14.6 µM

O=C1Nc2ccc(Br)cc2C1=Nc1cccnc1
22.1 µM: HCT-15
inactive: SK-OV-3 47.5 µM | RPMI-8226 21.4 µM | CCRF-CEM 16.2 µM | COLO 205 67.3 µM | UO-31 11.1 µM | HT-29 21 µM | HL-60 11.8 µM | MOLT-4 22.5 µM | IGROV-1 19 µM | CAKI-1 20.7 µM | Malme-3M 22.3 µM | SK-MEL-28 19.5 µM | NCI/ADR-RES 24.8 µM | OVCAR-4 7.23 µM | OVCAR-5 29.3 µM | KM12 27.4 µM | SK-MEL-2 23.4 µM | SNB-19 41.2 µM | OVCAR-3 18.9 µM | MDA-N 17 µM | HOP-62 25 µM | PC-3 18.1 µM | K562 20.1 µM | NCI-H23 20.7 µM | HOP-92 > 100 µM | NCI-H460 > 100 µM | SNB-75 > 100 µM | MDA-MB-231 18.1 µM | SF-539 16.5 µM | T47D 20.6 µM | 786-0 20.5 µM | SN12C 18.4 µM | ACHN 18.3 µM | A498 > 100 µM | Hs-578T 19.9 µM | UACC-257 21.4 µM | SF-295 50.4 µM | NCI-H226 31.4 µM | MDA-MB-435 13 µM | SF-268 27.7 µM | U-251 12.4 µM | BT-549 17.1 µM | NCI-H522 13.2 µM | RXF 393 15.2 µM | SW-620 17.8 µM | MCF7 22.7 µM | SK-MEL-5 17.8 µM | LOX IMVI 15.7 µM | DU-145 33 µM | UACC-62 17.3 µM | M14 15.7 µM | HCT-116 20.1 µM | TK-10 57.5 µM | OVCAR-8 25.3 µM | HCC 2998 20.6 µM | EKVX 24.3 µM | A549 48.4 µM

CC(=O)OCC1OC(NC(=S)CCSc2nc3ccccc3c(=O)n2-c2ccccc2)C(OC(C)=O)C(OC(C)=O)C1OC(C)=O (stereo not drawn)
inactive: SK-OV-3 46.9 µM | RPMI-8226 > 100 µM | CCRF-CEM 27.2 µM | COLO 205 40.1 µM | UO-31 42 µM | HT-29 > 100 µM | HL-60 29.2 µM | MOLT-4 30 µM | IGROV-1 2.34 µM | CAKI-1 > 100 µM | Malme-3M > 100 µM | SK-MEL-28 59.6 µM | NCI/ADR-RES > 100 µM | OVCAR-5 22.6 µM | KM12 36.5 µM | SK-MEL-2 22.1 µM | SNB-19 34 µM | OVCAR-3 40.4 µM | MDA-N 44.4 µM | HOP-62 28.3 µM | PC-3 40.9 µM | K562 34.2 µM | NCI-H23 68.1 µM | HOP-92 16.9 µM | NCI-H460 > 100 µM | SNB-75 22 µM | MDA-MB-231 > 100 µM | SF-539 1.64 µM | T47D 30.5 µM | 786-0 63.2 µM | SN12C 68.2 µM | ACHN 83.4 µM | Hs-578T 24.8 µM | UACC-257 30.4 µM | SF-295 32.5 µM | NCI-H226 50.5 µM | MDA-MB-435 52 µM | SF-268 > 100 µM | U-251 38.1 µM | BT-549 31.4 µM | NCI-H522 25.6 µM | RXF 393 18 µM | SW-620 41.2 µM | MCF7 > 100 µM | SK-MEL-5 45 µM | LOX IMVI 79.6 µM | DU-145 > 100 µM | UACC-62 28.4 µM | M14 46.1 µM | HCT-116 73.5 µM | SR 34.1 µM | OVCAR-8 > 100 µM | HCC 2998 39.3 µM | EKVX 57.8 µM | A549 > 100 µM
53.7 µM: HCT-15
